One data set concerns neuronal HT22 cells. On the set-up: method as in PMID 33397834. As to conditions: cited from earlier work; for Neuroprotective effect against glutamate-induced neurotoxicity: HT22 cells.
Another data set relates to MAO-A. On the set-up: method as in PMID 27575476, PMID 32087226. The conditions noted are these: cited from earlier work.
The next data set relates to MAO-B. Details: method as in PMID 27575476, PMID 32087226. The conditions noted are these: cited from earlier work.
A short description of data set [1]: Ferric reducing antioxidant power (FRAP) assay. As to conditions: 4 min, absorbance 595 nm; mean ± SEM, n = 3. The method, then:
We performed the FRAP assay as described in [29]. We prepared the FRAP reagent by mixing 2.5 mL of TPTZ (2,4,6-tris(2-pyridyl)-s-triazine) solution (10 mM) in 40 mM HCl and 25 mL of FeCl3 solution (20 mM) in acetate buffer solution (300 mM, pH 3.6). Polyphenolics 7–11 were added to 3 mL of FRAP reagent at concentrations from 6 to 34 µM. The mixture was kept in the dark at room temperature for 4 min. Then, we measured the absorbance at 595 nm using a Shimadzu UV 1240 spectrophotometer. Equation (2) was used to calculate the FRAP values for polyphenolic compounds 7–11:(2) FRAP=CFe/Cx where CFe is the concentration of Fe^2+ (µM) formed in the reaction; CX is the concentration of polyphenolic compounds in the reacting mixture.
The concentration of Fe^2+ (µM) formed in the reaction was determined using the calibration curve obtained for different concentrations of FeSO4·7H2O.

The nature of data set [2]: DPPH radical-scavenging effect. The conditions noted are these: 30 min; DPPH• 10^−4 M in MeOH; mean ± SEM, n = 3; read-out: DPPH-Scavenging Effect SC50. The method, then: The 2,2-diphenyl-1-picrylhydrazyl (DPPH^•) radical-scavenging effect of polyphenolic compounds 7–11 was determined as described in [24]. Polyphenolic compounds 7, 8, 9, 10, and 11 were added to DPPH^• solution in MeOH (10^−4 M) at concentrations from 6 to 34 µM. The reacting mixture was kept in the dark for 30 min at room temperature. Then, we measured the absorbance at 517 nm using a Shimadzu UV 1240 spectrophotometer (Shimadzu, Kyoto, Japan). Equation (1) was used to calculate the DPPH^• radical-scavenging effect (%):(1) DPPH^• scavenging effect,%=A0−Ax/A0 where A0 is the absorbance of DPPH^• solution of a blank sample (without polyphenolic compounds); AX is the absorbance of DPPH^• solution in the presence of different concentrations of polyphenolic compounds.
Quercetin was used as a reference compound. All experiments were performed in triplicate. We calculated the half-maximal scavenging concentration (SC50) for polyphenolic compounds by plotting the DPPH^• scavenging effect (%) against the concentrations of polyphenolic compounds. SC50 values are given as the mean value ± SEM.

Details of data set [3]: method as in PMID 31004693. As to conditions: 30 min; mean ± SEM, n = 3; previously published; read-out: DPPH-Scavenging Effect SC50; cited from earlier work. Background: DPPH is a stable violet radical that fades when it is reduced.
Details of data set [4]: method as in PMID 31004693. The conditions noted are these: mean ± SEM, n = 3; previously published; cited from earlier work.
A short description of the next data set: Cytotoxicity, MTT assay. Type of data set: cell-based, murine. The conditions noted are these: mouse, Neuro-2a neuroblastoma cells, read-out: Cytotoxic activity EC50. The protocol:
The murine neuroblastoma cell line Neuro-2a (CCL-131) was purchased from American Type Culture Collection (ATCC®) (Manassas, VA, USA). Cells were cultured in Dulbecco’s Modified Eagle Medium (Biolot, St. Petersburg, Russia). The medium contained 10% fetal bovine serum (Biolot, St. Petersburg, Russia) and 1% penicillin/streptomycin (Biolot, St. Petersburg, Russia). Cells were incubated at 37 °C in a humidified atmosphere containing 5% (v/v) CO2.
Stock solutions of polyphenolic compounds were prepared in DMSO at a concentration of 10 mM. […]
We incubated Neuro-2a cells (1 × 10^4 cells/well) at 37 °C in a CO2 incubator for 24 h until they formed an adherent monolayer. Then, 20 μL of the tested solution was loaded onto the cells and incubated for 24 h. After incubation, the medium containing the polyphenolic test compounds was replaced by 100 μL of fresh medium. Then, we added 10 μL of MTT (3-(4,5-dimethylthiazol-2-yl)-2,5-diphenyltetrazolium bromide) (Sigma-Aldrich, St. Louis, MO, USA) stock solution (5 mg/mL) to each well and incubated the microplate for 4 h. Then, 100 μL of SDS-HCl solution (1 g SDS/10 mL dH2O/17 μL 6 M HCl) was added to each well, followed by incubation for 18 h. We measured the absorbance of the converted dye formazan on a Multiskan FC microplate photometer (Thermo Scientific, Waltham, MA, USA) at a wavelength of 570 nm. We performed all experiments in triplicate and expressed the cytotoxic activity as percent of living cells.
(Tetrazolium assays rely on reduction of a dye to a coloured formazan, in cell work by metabolically active cells.)

Data set [5] deals with PQ-treated Neuro-2a cells. The data set can be described thus: PQ-induced neurotoxicity, cell viability (MTT). As to conditions: PQ 1 mM; for Effect on percentage of living cells after treatment with PQ: compounds 0.01–10 μM, 1 h pre-treatment, MTT after 24 h; for Increase in percentage of living cells after treatment with PQ: compound 1 and 10 μM, MTT. The class given is cell-based, murine. The protocol: (§1) After 24 h of adhesion, Neuro-2a cells (1 × 10^4 cells/well) were treated with polyphenolic compounds at concentrations of 0.01–10 μM for 1 h. Subsequently, 1 mM of PQ, 10 μM rotenone or 80 μM of 6-OHDA (Sigma-Aldrich, St. Louis, MO, USA) were added. We used MTT assay to determine the percentage of living cells (cell viability) after 24 h of incubation. Cells incubated without inductors or with inductors were used as positive and negative control, respectively. The results are presented as percentages of the positive control value.

Data set [6] relates to 6-OHDA-treated Neuro-2a cells. The data set can be described thus: ROS level in 6-OHDA-treated cells (H2DCF-DA). The class given is cell-based, murine. As to conditions: 6-OHDA 80 µM. The protocol:
After 24 h of adhesion, Neuro-2a cells (1 × 10^4 cells/well) were incubated with compounds (0.01–10 µM) for 1 h. Then, we added rotenone (10 μM), 6-OHDA (80 μM), or PQ (1 mM) to each well and incubated cells for 1 h, 1 h, or 3 h, respectively. To evaluate the level of intracellular ROS, we added 20 µL of 2,7-dichlorodihydrofluorescein diacetate solution ([…], H2DCF-DA, Molecular Probes, Eugene, OR, USA) to each well, so that the final concentration was 10 µM, and incubated the microplate at 37 °C for an additional 30 min. Quercetin was used as a reference compound.

Data set [7] deals with 6-OHDA-treated Neuro-2a cells. The data set is described as follows: 6-OHDA-induced neurotoxicity, cell viability (MTT). The class given is cell-based, murine. The conditions noted are these: 6-OHDA 80 µM, p < 0.05. The method, then: as §1
Data set [8] deals with PQ-treated Neuro-2a cells. The data set is described as follows: Mitochondrial membrane potential (TMRM) in PQ-treated cells. Type of data set: cell-based, murine. The protocol:
The cells were incubated for 1 h in a 96-well plate (1 × 10^4 cells/well) with polyphenolic compounds (1 and 10 µM). Then, PQ (500 µM) was added, and the cell suspension was incubated for 1 h. Cells incubated without PQ and compounds were used as positive control, and cells with PQ alone were used as negative control. We added the tetramethylrhodamine methyl (TMRM) (Sigma-Aldrich, St. Louis, MO, USA) solution (500 nM) to each well, and incubated cells for 30 min at 37 °C. After the incubation, we measured the intensity of fluorescence with a PHERAstar FSplate reader (BMG Labtech, Ortenberg, Germany) at λex = 540 nm and λem = 590 nm. We processed the data using MARS Data Analysis v3.01R2 (BMG Labtech, Ortenberg, Germany) and presented results as percentages of the positive control value.

Where two headings read alike, the source gives them in different places.

For the compound 2-geranyl-1-methoxylespeflorin G11, the “Neuroprotective effect against glutamate-induced neurotoxicity” value (“Neuroprotective effect” for short) with neuronal HT22 cells is recorded as “significant neuroprotective effects”. Also, the “Apoptosis in HT22 cells” value in the data set with neuronal HT22 cells (by inhibiting intracellular ROS generation and mitochondrial dysfunction) is recorded as “attenuate”.

As for 2-geranylbicolosin A, the “Neuroprotective effect” value in the data set with neuronal HT22 cells is on record as “significant neuroprotective effects”.

Turning to `COc1c(CC=C(C)C)c(O)cc2c1C1Oc3c(ccc(O)c3CC=C(C)C)C1CO2` (centres unmarked) [1-methoxyerythrabyssin II], the “Neuroprotective effect” value in the data set with neuronal HT22 cells is “significant neuroprotective effects”.

As for `COc1cc(O)cc2c1C1Oc3c(ccc(O)c3CC=C(C)C)C1CO2` (centres unmarked) [1-methoxylespeflorin G11], the “Neuroprotective effect” value in the data set on neuronal HT22 cells was “significant neuroprotective effects”.

As to `COc1cc2c(cc1O)OC1c3c(OC)cc(O)c(C/C=C(\C)CCC=C(C)C)c3OCC21` (centres unmarked) [8-methoxybicolosin C], the “Neuroprotective effect” value in the data set with neuronal HT22 cells is reported as “significant neuroprotective effects”.

`COc1ccc2c(c1O)OC[C@H]1c3cc4c(cc3O[C@@H]21)OCO4` [(–)-4-hydroxy-3-methoxy-8,9-methylenedioxypterocarpan]: in the data set with MAO-A, the “Inhibition of MAO-A” value was “effectively inhibit”. Besides, the “Inhibition of MAO-B” value in the data set on MAO-B is reported as “effectively inhibit”.

As to `O=C1O[C@H]([C@@H](O)CO)C(O)=C1O` [Ascorbic acid, reference compound], the FRAP in data set [1] is reported as 3.43 ± 0.33 mol (Fe^2+)/mol (polyphenolic compound X). Besides, the EC50 in data set [2] stood at 30.5 ± 2.1 µM.

In the case of `CC(C)=CCC/C(C)=C/Cc1c(O)c(O)cc2c1O[C@H]1c3ccc(O)cc3OC[C@@H]21` [Compound 1, (6aR,11aR)-6a,11a-dihydrolespedezol A2], in data set [3], the EC50 was 24.3 ± 3.7 µM. Besides, the FRAP in data set [4] is 1.78 ± 0.16 mol (Fe^2+)/mol (polyphenolic compound X). The EC50 at 24 h in the data set “Cytotoxicity, MTT assay” was determined as 72 µM. In addition, the “Effect on percentage of living cells after treatment with PQ” value (“Effect on percentage of living cells” below) in [5] was “did not exhibit any effect”.

As for `CC(C)=CCC[C@@]1(C)C=Cc2c(c(O)cc3c2O[C@H]2c4ccc(O)cc4OC[C@@H]32)O1` [Compound 2, (6aR,11aR,3′S)-6a,11a-dihydrolespedezol A3], the EC50 in [3] is 25 ± 2.2 µM. Moreover, the FRAP in [4] is on record as 1.31 ± 0.02 mol (Fe^2+)/mol (polyphenolic compound X). Besides, the “Decrease of ROS level compared to 6-OHDA-treated cells” value in [6] is 4.5 times. The “Effect on ROS levels in 6-OHDA-treated cells” value in [6] (1 h, H2DCF-DA) was “significantly decreased”. Also, in “Cytotoxicity, MTT assay”, the EC50 at 24 h came to 75 µM. Moreover, the “Increase in percentage of living cells after 6-OHDA treatment versus 6-OHDA-treated cells” value in [7] amounted to 8.7%. Also, the “Effect on percentage of living cells” value in data set [5] is reported as “did not exhibit any effect”.

As to `CC(C)=CCC/C(C)=C/Cc1c(O)c(O)cc(C(=O)C(=O)c2ccc(O)cc2O)c1O` [Compound 5, bicoloketone], the EC50 in [3] is 26.1 ± 3 µM. Besides, in data set [4], the FRAP was 0.86 ± 0.04 mol (Fe^2+)/mol (polyphenolic compound X). In “Cytotoxicity, MTT assay”, the EC50 at 24 h is 100 µM. Moreover, in data set [8] (compound 10 µM, PQ-treated Neuro-2a, TMRM), the “Increase in mitochondrial membrane potential” value amounted to 23%. In [5], the “Effect on percentage of living cells” value is on record as “significantly increased” and the “Increase in percentage of living cells after treatment with PQ” value is listed as 8–10%.

Regarding `CC(C)=CCC/C(C)=C/Cc1c(O)c(O)cc2c1oc1c3ccc(O)cc3oc(=O)c21` [Compound 7, lespedezol A6], the FRAP in data set [1] is listed as 1.83 ± 0.16 mol (Fe^2+)/mol (polyphenolic compound X). Further, in “Cytotoxicity, MTT assay”, the EC50 at 24 h was above 100 µM. For the same compound, in data set [2], the EC50 is 25.7 ± 3.4 µM.

With `CC(C)=CCC/C(C)=C/Cc1c(O)c(C(=O)c2c(-c3ccc(O)cc3O)oc3c(C/C=C(\C)CCC=C(C)C)c(O)c(O)cc23)cc2c1OC1c3cc(CC=C(C)C)c(O)cc3OCC21` (centres unmarked) [Compound 8, lespebicolin B], the FRAP in data set [1] was 1.95 ± 0.19 mol (Fe^2+)/mol (polyphenolic compound X). Also, in the data set “Cytotoxicity, MTT assay”, the EC50 at 24 h was above 100 µM. Also, the EC50 in [2] worked out at 26.7 ± 3.8 µM. Also, in data set [5], the “Effect on percentage of living cells” value is “significantly increased” and the “Increase in percentage of living cells after treatment with PQ” value is given as 8–10%.

With `CC(C)=CCC/C(C)=C/Cc1c(O)c(O)cc(C(=O)C(=O)c2cc(CC=C(C)C)c(O)cc2O)c1O` [Compound 11, 5′-isoprenylbicoloketone], the FRAP in data set [1] was 1.45 ± 0.08 mol (Fe^2+)/mol (polyphenolic compound X). For the same compound, the EC50 at 24 h in the data set “Cytotoxicity, MTT assay” stood at 87 µM. In data set [2], the EC50 came out at 19.4 ± 2.2 µM.

Regarding `C[n+]1ccc(-c2cc[n+](C)cc2)cc1` [PQ, paraquat, reference compound], in data set [8] (1 h exposure of Neuro-2a cells with PQ alone), the “Decrease in TMRM fluorescence” value worked out at 23%.

Regarding `O=c1c(O)c(-c2ccc(O)c(O)c2)oc2cc(O)cc(O)c12` [Quercetin, reference compound], the FRAP in data set [1] is on record as 5.11 ± 0.31 mol (Fe^2+)/mol (polyphenolic compound X). The EC50 in [2] came out at 8.9 ± 0.2 µM.

Take `COc1c(CC=C(C)C)c(O)cc2c1[C@@H]1Oc3c(cc(C)c(O)c3CC=C(C)C)[C@@H]1CO2` [bicolosin A]: the “Neuroprotective effect” value with neuronal HT22 cells is “significant neuroprotective effects”.

Regarding medicarpin, the “Inhibition of MAO-A” value in the data set with MAO-A is listed as “did not effectively inhibit”. In addition, the “Inhibition of MAO-B” value in the data set on MAO-B is “selectively inhibited”.

The record behind these values is paper PMC9025851, “Polyphenolic Compounds from Lespedeza bicolor Protect Neuronal Cells from Oxidative Stress” (Antioxidants, 2022).
